Patent publication US5861296A, “Purified thermostable inorganic pyprophosphatase obtainable from thermococcus litoralis” (New England Biolabs, Inc., priority 1997, dated 1999)
Each block holds one molecule with its values, some of them ahead of it.

Tests used:
[1] = target: Thermococcus litoralis inorganic pyrophosphatase (PPase), wild type, SEQ ID NO: 10 (Thermococcus litoralis, UniProt P77992); settings: read-out: apparent Km for PPi (inorganic pyrophosphate); initial velocities at low substrate concentrations, Mg2+/PPi ratio of one; Lineweaver-Burke plot
Method: The PPase is incubated at 75° C. for 10 minutes in a 100 μl reaction containing 30 mM Tris pH 9.0, 1.5 mM MgCl2 and 1.5 mM sodium pyrophosphate. The enzyme is then cooled quickly to room temperature and complexed with 0.9 ml of Taussky-Schorr reagent (5.0 g ferrous sulfate, 10 ml 10% ammonium molybdate in 10N sulfuric acid, in a final solution volume of 100 ml.) After 10 minutes, an absorbance reading is taken at 660 nm. The absorbance reading was compared to a standard curve using Sigma's (St. Louis, Mo.) phosphorous standard (#661-9). One standard unit will liberate 1.0 μmole of inorganic orthophosphate per minute under the above conditions.

[2] = target: the molecule itself; experiment: gel filtration on Superose 12 HR 10/30 (125 kDa) against the subunit mass by SDS-PAGE and DNA sequence
Method: The molecular mass of the *T. litoralis* inorganic pyrophosphatase was estimated by gel filtration in a Superose 12 HR 10/30 (Pharmacia; Piscataway, N.J.) (10×300 mm). The column was equilibrated with 50 mM Tris-HCl pH 7.5 containing 100 mM NaCl and run at a flow rate of 0.5 ml/min. The Superose 12 HR 10/30 had been previously calibrated with different standard proteins: Catalase (232 kDa), Aldolase (158 kDa), Bovine Serum Albumin (67 KDa), Ovalbumin (43 kDa), Chymotrypsinogen (25 kDa), and Ribonuclease A (13.7 kDa) (all from Pharmacia; Piscataway, N.J.). From the plot of log (molecular mass) versus the distribution coefficient (Kav), a value of 125 kDa was calculated for the molecular mass of *T. litoralis* inorganic pyrophosphatase. Since the apparent molecular mass of the monomer was determined to be 20 to 21 kDa on an SDS-PAGE and 19,666 Da by the DNA sequence, the enzyme is probably homohexameric. The homohexameric structure of the *Thermococcus litoralis* inorganic pyrophosphatase agrees with other known cytoplasmic PPases from eubacterial and archaeal sources which tend to be tetrameric or hexameric complexes with single subunits of 19 to 23 kDa.

Km [1]: 1000 µM
Molecule: O=P(O)(O)OP(=O)(O)O [PPi, inorganic pyrophosphate]

B1: Thermococcus litoralis inorganic pyrophosphatase subunit (enzyme)
chain: MNPFHDLEPGPEVPEVVYALIEIPKGSRNKYELDKKTGLIKLDRVLYSPFHYPVDYGIIPQTWYDDDDPFDIMVIMREPTYPGVLIEARPIGLFKMIDSGDKDYKVLAVPVEDPYFNDWKDISDVPKAFLDEIAHFFQRYKELQGKEIIVEGWENAEKAKQEILRAIELYKEKFKK
binding result [2]: binds
